Literature values as cited in patent US6765009B2, “1,4-Disubstituted benzo-fused compounds” (Boehringer Ingelheim Pharmaceuticals, Inc., priority 2001, dated 2004).

Columns and labels:
[1] = tested on: closed brain injury; details: experimental model
[2] = tested on: rheumatoid arthritis; details: Phase III clinical trial
[3] = tested on: septic shock syndrome; details: phase III human clinical trial

For `CCCCCCC(C)(C)c1cc(O)c2c(c1)OC(C)(C)[C@H]1CC=C(CO)C[C@H]21` [HU-211], the “outcome of closed brain injury” value [1] is given as “improve the outcome”.

In the case of Enbrel, the “efficacy in treatment of rheumatoid arthritis” value [2] is listed as “demonstrated efficacy”.

For “IL-1ra: "IL-1 receptor antagonist (IL-1ra) had been examined in human clinical trials" ... "(Antril, Amgen)"”, the “mortality rate in patients with septic shock syndrome” value [3] is given as “reduced the mortality rate”.
